Measurements reported in publication PMC2698029 (Journal of medicinal chemistry, 2009).
Structures can show the parent of a compound that is named as a salt. Marks after values point to notes of the source that are not given here.

What was measured:
[1] = system: Plasmodium berghei, ANKA strain; assay: Single oral dose antimalarial efficacy in P. berghei-infected mice; type: in vivo, C57BL/6J male mice; conditions: single oral dose 144 mg/kg
[2] = system: WT-MEF Noncancerous mouse embryonic fibroblasts; assay: Cytotoxicity, SRB assay, WT-MEF noncancerous fibroblasts; type: cell-based; conditions: Fibroblast, 72 h, read-out: IC50 Values (μM)
[3] = Thermal stability in the solid state; type: physicochemical; conditions: 60 °C
[4] = Hydrolytic stability in DMSO/water; type: physicochemical; conditions: room temperature, 80/20 DMSO/water at pH 7.4
[5] = system: Plasmodium berghei, ANKA strain; conditions: cited from earlier work; for Average survival time (not prolonged beyond day): single oral dose of 30 mg/kg, summary of Table 1
[6] = single oral dose of 30 mg/kg (printed in the 1 × 72 column)

Row | Compound | Adverse effects ([1]; malaria-infected mice) | IC50 [2] | Time stable in the solid state [3] | Stability in the solid state for one week ([3]; one week) | Time stable in solution [4] | % Suppression of Parasitemia (on day 3 post infection) [5, 6] | Average Survival (days) After Infection [5, 6] | Average survival time (not prolonged beyond day) [5] | Parasitemia at day 30 ([1]; 2 of the 5 mice, appeared sick)
1 | C[C@H]1[C@@H](CC(C[C@H]2O[C@@H]3C[C@]4(C)CC[C@H]5[C@H](C)CC[C@@H]([C@H]2C)[C@@]35OO4)CS(=O)(=O)c2ccc(COC(=O)N(C)C)cc2)O[C@@H]2C[C@]3(C)CC[C@H]4[C@H](C)CC[C@@H]1[C@@]24OO3 [Dimer 4c, dimeric sulfone benzylic dimethyl carbamate] | no adverse effects | > 50 µM | ≥ 24 h | stable | at least 12 hours |  |  |  | 
2 | CC(C)(N)CNC(=O)C[C@H]1CC[C@]2(CC1)OO[C@]1(O2)C2CC3CC(C2)CC1C3 [Dimer 7, OZ277 maleate] |  |  |  |  |  | 99.95 ^b % | 10.7 ^b days | ≤ 11 days | 
3 | C[C@H]1[C@@H](CC(C[C@H]2O[C@@H]3C[C@]4(C)CC[C@H]5[C@H](C)CC[C@@H]([C@H]2C)[C@@]35OO4)CS(=O)(=O)c2ccc(CO)cc2)O[C@@H]2C[C@]3(C)CC[C@H]4[C@H](C)CC[C@@H]1[C@@]24OO3 (some centres unmarked) [Dimer 4b, dimeric sulfone benzylic alcohol] |  | > 50 µM | ≥ 24 h |  | at least 12 hours |  |  |  | 7–9%
4 | C[C@H]1[C@H](OC(=O)CCC(=O)[O-])O[C@@H]2O[C@@]3(C)CC[C@H]4[C@H](C)CC[C@@H]1[C@@]24OO3.[Na+] [Dimer 1c, sodium artesunate] |  |  |  |  |  |  | 7.6 ^b days | ≤ 11 days | 
